What was measured:
Type in all cases: in vivo
Plasmopara viticola = test: Grape vine downy mildew (VDM) control test; conditions: Table 9: monosaccharide 10% liquid preparation, no assistant, 10-fold dilution (monosaccharide 1%)
Sphaerotheca cucurbitae = test: Cucumber powdery mildew (CPM) control test; conditions: Table 9: monosaccharide 10% liquid preparation, no assistant, 10-fold dilution (monosaccharide 1%)
Phytophthora infestans = conditions: Table 9: monosaccharide 10% liquid preparation, no assistant, 10-fold dilution (monosaccharide 1%)
Botrytis cinerea = test: Tomato gray mold (GM) control test; conditions: Table 9: monosaccharide 10% liquid preparation, no assistant, 10-fold dilution (monosaccharide 1%)
Experimental: (GM: Gray Mold) Test plants (tomato variety: Oogata Fukuju) were planted followed by cultivating until three first leaves appeared. In the test, dilutions (5 ml/pot) obtained by diluting with distilled water so that each formula reached a prescribed concentration were sprayed. After inoculating the seedlings one day after spraying by spraying with 1×10^7 organisms/ml of conidia of Botrytis cinerea, the seedlings were allowed to stand for about 48 hours in an inoculation room at a room temperature of 20° C. to 23° C. to promote the onset of disease. Disease development was investigated 2 days after inoculation, and the effects thereof were evaluated. Disease development was evaluated using the following indicators for disease control tests evaluated according to the methods described above. Furthermore, preventive values were calculated based on the disease development.

Magnaporthe grisea = conditions: Table 9: monosaccharide 10% liquid preparation, no assistant, 10-fold dilution (monosaccharide 1%)
Venturia inaequalis = test: Apple scab (AS) control test; conditions: Table 9: monosaccharide 10% liquid preparation, no assistant, 10-fold dilution (monosaccharide 1%)
Experimental: (AS: Apple Scab) Test plants (apple variety: Ohrin) were planted followed by cultivating until four first leaves appeared. In the test, dilutions (5 ml/pot) obtained by diluting with distilled water so that each formula reached a prescribed concentration were sprayed. After inoculating the seedlings one day after spraying by spraying with 1×10^5 organisms/ml of conidia of Venturia inaequalis, the seedlings were allowed to stand for about 24 hours in an inoculation room at a room temperature of 18° C. to 20° C. to promote the onset of disease. Disease development was investigated 10 days after inoculation, and the effects thereof were evaluated. Disease development was evaluated using the following indicators for disease control tests evaluated according to the methods described above. Furthermore, preventive values were calculated based on the disease development.

[1] = tested on: Rhizoctonia solani AGI-IA; test: Rice sheath blight (SB) control test; conditions: Table 9: monosaccharide 10% liquid preparation, no assistant, 10-fold dilution (monosaccharide 1%)
Experimental: (SB: Sheath Blight) Test plants (rice variety: Sachikaze) were planted followed by cultivating until the third leaf appeared. In the test, dilutions (5 ml/pot) obtained by diluting with distilled water so that each formula reached a prescribed concentration were sprayed. After inoculating the seedlings one day after spraying with clumps of Rhizoctonia solani AGI-IA cultured for 14 days in oat medium, the seedlings were allowed to stand for about 24 hours in an inoculation room at a room temperature of 28° C. to promote the onset of disease. Disease development was investigated 14 days after inoculation, and the effects thereof were evaluated. Disease development was evaluated using the following indicators for disease control tests evaluated according to the methods described above. Furthermore, preventive values were calculated based on the disease development.

[2] = tested on: Pseudoperonospora cubensis; test: Cucumber downy mildew (CDM) control test; conditions: Table 8: D-tagatose liquid preparation with assistant (5 parts), 10-fold dilution (D-tagatose 0.5%+assistant 0.5%); improvement vs D-tagatose only
Ralstonia solanacearum = conditions: Table 9: monosaccharide 10% liquid preparation, no assistant, 10-fold dilution (monosaccharide 1%)

## OC[C@H]1OC(O)[C@H](O)[C@H](O)[C@@H]1O (stereo partly drawn) [D-allose]
Plasmopara viticola
  preventive value VDM: (40)
Sphaerotheca cucurbitae
  preventive value CPM: (17)
Phytophthora infestans
  preventive value LB: (60)
Botrytis cinerea
  preventive value GM: (33)
Magnaporthe grisea
  preventive value B: (40)
Venturia inaequalis
  preventive value AS: (66)
[1]
  preventive value SB: (60)

## O=C[C@H](O)[C@@H](O)[C@@H](O)[C@H](O)CO [D-galactose]
[2]
  Evaluation Score CDM: 1 (Improvement in preventive value of 1 to less than 10)
Plasmopara viticola
  preventive value VDM: (0)
Sphaerotheca cucurbitae
  preventive value CPM: (0)
Phytophthora infestans
  preventive value LB: (0)
Botrytis cinerea
  preventive value GM: (33)
Magnaporthe grisea
  preventive value B: (17)
Venturia inaequalis
  preventive value AS: (66)
[1]
  preventive value SB: (60)
Ralstonia solanacearum
  preventive value TBW: (25)

## O=C(CO)[C@H](O)[C@H](O)[C@H](O)CO [D-psicose]
[2]
  Evaluation Score CDM: 3 (Improvement in preventive value of 20 to less than 30)
Plasmopara viticola
  preventive value VDM: (0)
Sphaerotheca cucurbitae
  preventive value CPM: (17)
Phytophthora infestans
  preventive value LB: (47)
Botrytis cinerea
  preventive value GM: (50)
Magnaporthe grisea
  preventive value B: (50)
Venturia inaequalis
  preventive value AS: (50)
[1]
  preventive value SB: (40)

## O=C(CO)[C@H](O)[C@@H](O)[C@H](O)CO [D-sorbose]
[2]
  Evaluation Score CDM: 2 (Improvement in preventive value of 10 to less than 20)
Plasmopara viticola
  preventive value VDM: (0)
Sphaerotheca cucurbitae
  preventive value CPM: (17)
Phytophthora infestans
  preventive value LB: (33)
Botrytis cinerea
  preventive value GM: (33)
Magnaporthe grisea
  preventive value B: (17)
Venturia inaequalis
  preventive value AS: (33)
[1]
  preventive value SB: (40)

## O=C[C@@H](O)[C@@H](O)[C@@H](O)[C@H](O)CO [D-talose]
[2]
  Evaluation Score CDM: 2 (Improvement in preventive value of 10 to less than 20)
Plasmopara viticola
  preventive value VDM: (0)
Sphaerotheca cucurbitae
  preventive value CPM: (17)
Magnaporthe grisea
  preventive value B: (50)
[1]
  preventive value SB: (30)

## O=C(CO)[C@H](O)[C@@H](O)[C@@H](O)CO [L-fructose]
Plasmopara viticola
  preventive value VDM: (0)
Sphaerotheca cucurbitae
  preventive value CPM: (33)
Botrytis cinerea
  preventive value GM: (40)
Magnaporthe grisea
  preventive value B: (0)
[1]
  preventive value SB: (60)

## NC(=O)CC[C@H](N)C(=O)O [L-glutamine]
[2]
  Evaluation Score CDM: 1 (Improvement in preventive value of 1 to less than 10)

## N[C@@H](Cc1c[nH]cn1)C(=O)O [L-histidine]
[2]
  Evaluation Score CDM: 3 (Improvement in preventive value of 20 to less than 30)

## CC[C@H](C)[C@H](N)C(=O)O [L-isoleucine]
[2]
  Evaluation Score CDM: 1 (Improvement in preventive value of 1 to less than 10)

## CSCC[C@H](N)C(=O)O [L-methionine]
[2]
  Evaluation Score CDM: 2 (Improvement in preventive value of 10 to less than 20)

## N[C@@H](Cc1ccccc1)C(=O)O [L-phenylalanine]
[2]
  Evaluation Score CDM: 3 (Improvement in preventive value of 20 to less than 30)

## O=C(O)[C@@H]1CCCN1 [L-proline]
[2]
  Evaluation Score CDM: 1 (Improvement in preventive value of 1 to less than 10)

## C[C@H](O)[C@H](O)[C@@H](O)[C@@H](O)C=O [L-rhamnose]
[2]
  Evaluation Score CDM: 2 (Improvement in preventive value of 10 to less than 20)

## N[C@@H](CO)C(=O)O [L-serine]
[2]
  Evaluation Score CDM: 1 (Improvement in preventive value of 1 to less than 10)

## C[C@@H](O)[C@H](N)C(=O)O [L-threonine]
[2]
  Evaluation Score CDM: 1 (Improvement in preventive value of 1 to less than 10)

## CC(O)C(=O)O (stereo not shown) [Lactic acid]
[2]
  Evaluation Score CDM: 0

## O=C(O)CC(=O)O [Malonic acid]
[2]
  Evaluation Score CDM: 0

## O=C(CO)[C@@H](O)[C@H](O[C@H]1O[C@H](CO)[C@@H](O)[C@H](O)[C@H]1O)[C@H](O)CO [Maltulose]
[2]
  Evaluation Score CDM: 1 (Improvement in preventive value of 1 to less than 10)

## OC[C@@H](O)[C@@H](O)CO [Meso-erythritol]
[2]
  Evaluation Score CDM: 3 (Improvement in preventive value of 20 to less than 30)

## OC[C@H]1O[C@H](OC[C@H]2O[C@H](O[C@]3(CO)O[C@H](CO)[C@@H](O)[C@@H]3O)[C@H](O)[C@@H](O)[C@@H]2O)[C@H](O)[C@@H](O)[C@H]1O [Raffinose]
[2]
  Evaluation Score CDM: 4 (Improvement in preventive value of 30 to less than 40)

## O=C[C@H](O)[C@@H](O)[C@H](O)[C@H](O)C(=O)[O-].[Na+] [Sodium D-glucuronate]
[2]
  Evaluation Score CDM: 1 (Improvement in preventive value of 1 to less than 10)

## OC[C@H]1O[C@@](CO)(O[C@H]2O[C@H](CO)[C@@H](O)[C@H](O)[C@H]2O)[C@@H](O)[C@@H]1O [Sucrose]
[2]
  Evaluation Score CDM: 1 (Improvement in preventive value of 1 to less than 10)

## OC[C@H]1O[C@H](O[C@H]2O[C@H](CO)[C@@H](O)[C@H](O)[C@H]2O)[C@H](O)[C@@H](O)[C@@H]1O [Trehalose]
[2]
  Evaluation Score CDM: 3 (Improvement in preventive value of 20 to less than 30)

## O=c1cc[nH]c(=O)[nH]1 [Uracil]
[2]
  Evaluation Score CDM: 1 (Improvement in preventive value of 1 to less than 10)

## O=c1ccn([C@@H]2O[C@H](CO)[C@@H](O)[C@H]2O)c(=O)[nH]1 [Uridine]
[2]
  Evaluation Score CDM: 0

## OC[C@@H](O)[C@H](O)[C@@H](O)CO [Xylitol]
[2]
  Evaluation Score CDM: 2 (Improvement in preventive value of 10 to less than 20)

## D-glucose
[2]
  Evaluation Score CDM: 1 (Improvement in preventive value of 1 to less than 10)

## D-mannose
[2]
  Evaluation Score CDM: 2 (Improvement in preventive value of 10 to less than 20)
Sphaerotheca cucurbitae
  preventive value CPM: (33)
Botrytis cinerea
  preventive value GM: (16)
Magnaporthe grisea
  preventive value B: (17)
[1]
  preventive value SB: (60)

## L-alanine
[2]
  Evaluation Score CDM: 2 (Improvement in preventive value of 10 to less than 20)

## L-leucine
[2]
  Evaluation Score CDM: 3 (Improvement in preventive value of 20 to less than 30)

## L-valine
[2]
  Evaluation Score CDM: 3 (Improvement in preventive value of 20 to less than 30)

## Lactose
[2]
  Evaluation Score CDM: 1 (Improvement in preventive value of 1 to less than 10)

## Stachyose
[2]
  Evaluation Score CDM: 1 (Improvement in preventive value of 1 to less than 10)

From patent publication US9861099B2, “Composition for enhancing plant disease control effect of monosaccharide” (MITSUI CHEMICALS AGRO, INC., priority 2013, dated 2018)
